Laboratory results from PubChem BioAssay (NCI).
Where “and” joins values, the source holds several entries; their conditions need not be identical. Identical values can stand only once.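 How tested: cells in 96-well plates exposed to compound for 48 hours at five concentrations. The concentration for 50% growth inhibition is given as GI50. At the TGI there is no net growth.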

How the values were obtained:
Experiment in all cases: growth of human tumour cells (NCI), 48 h
HOP-62 NSCLC = test system: HOP-62 NSCLC
CAKI-1 renal = test system: CAKI-1 renal
SF-295 CNS = test system: SF-295 CNS
COLO 205 colon = test system: COLO 205 colon
MALME-3M melanoma = test system: MALME-3M melanoma
LOX IMVI melanoma = test system: LOX IMVI melanoma
BT-549 breast = test system: BT-549 breast
OVCAR-4 ovarian = test system: OVCAR-4 ovarian
U251 CNS = test system: U251 CNS
HCC-2998 colon = test system: HCC-2998 colon

| SMILES | GI50 (HOP-62 NSCLC) [µM] | TGI (HOP-62 NSCLC) [µM] | GI50 (CAKI-1 renal) [µM] | TGI (CAKI-1 renal) [µM] | GI50 (SF-295 CNS) [µM] | TGI (SF-295 CNS) [µM] | GI50 (COLO 205 colon) | TGI (COLO 205 colon) [µM] | GI50 (MALME-3M melanoma) [nM] | TGI (MALME-3M melanoma) [µM] | GI50 (LOX IMVI melanoma) [µM] | TGI (LOX IMVI melanoma) [µM] | GI50 (BT-549 breast) [µM] | TGI (BT-549 breast) [µM] | GI50 (OVCAR-4 ovarian) | TGI (OVCAR-4 ovarian) [µM] | GI50 (U251 CNS) | TGI (U251 CNS) [µM] | GI50 (HCC-2998 colon) | TGI (HCC-2998 colon) |
| --- | --- | --- | --- | --- | --- | --- | --- | --- | --- | --- | --- | --- | --- | --- | --- | --- | --- | --- | --- | --- |
| COCc1c(-c2cc3cc(C)cc(OC)c3s2)c2c(N)ncnn2c1CN1CCNC(=O)C1 | 2.6 | 15.9 | 4.88 | 44.2 | 3.05 | 21.5 | 5.13 µM | 24.4 | 2830 | 17.3 | 3.05 | 13.5 | 1.03 | 17.1 | 1.88 µM | 61.1 | 3.86 µM | 79.7 | 8.37 µM | > 100 µM |
| O=C(Nc1cccc(O)c1)c1ccc(NC2=C(Cl)C(=O)N(Cc3ccc(Cl)cc3Cl)C2=O)cc1 | 8.44 | > 58.5 | 1.92 | 3.58 | 1.95 | 4.07 | 1.9 µM | 4.18 | 2230 | 5.75 | 1.62 | 3.16 | 5.7 | 12.2 | 5.43 µM | 12.7 | 1.76 µM | 3.23 | 18.9 µM | 33.8 µM |
| CC1=C2[C@@H](CC1)[C@]1(C)O[C@@](C(C)C)(C[C@H]1OC(=O)CO)[C@H]2OC(=O)C1CC1c1ccccc1 (some centres not stated) | 15.2 | 29.7 | 11.4 | 24 | 12 | 24.7 | 16.1 µM | 33 | 16500 | 33.4 | 14.4 | 31.1 | 13.6 | 28.7 | 13 µM | 26.9 | 14.8 µM | 28.6 | 13.5 µM | 29.4 µM |
| CN(C)c1ccc2oc(=O)c3ccccc3c2c1 | – | 80.5 | – | > 100 | – | > 100 | – | > 100 | – | > 100 | – | > 100 | – | > 100 | – | > 100 | – | 58.7 | – | > 100 µM |
| CCOCCCn1c2c(c3c(O)cccc31)C(=O)c1ccccc1-2 | 17.8 | 48 | 21.6 | 64.1 | 21.4 | 55.3 | 16 µM | 33.3 | 14700 | 37.1 | 17.2 | 32.7 | 29 | 87.8 | 21.3 µM | 69.3 | 23.7 µM | 62.5 | 22.1 µM | 64.3 µM |
| CCN(Cc1ccccc1)C1CCN(Cc2cc(Br)ccc2O)CC1 | > 100 | > 100 | 57.9 | > 100 | 25.6 | > 100 | 17 µM | 39.6 | 24000 | 53 | 23.3 | 63.6 | 44.4 | > 100 | 33.7 µM | > 100 | 32.5 µM | > 100 | 33.7 µM | > 100 µM |
| CCOC(=O)Oc1cc2c(c(OC)c1OC)-c1ccc(OC)c(=O)cc1C(NC(C)=O)CC2 (configuration not stated) | – | > 93.1 | – | > 100 | – | 3.09 | – | 0.135 | – | > 100 | – | > 100 | – | > 100 | – | > 100 | – | 8.56 | – | 0.683 µM |
| COc1ccc(C/C(=C(\C)c2ccc(OCCN3CCCC3)cc2)c2ccc(OCCN3CCCC3)cc2)cc1 | 2.18 | 7.02 | 1.66 | 3.09 | 1.76 | 3.47 | 1.72 µM | 3.38 | 1670 | 3.26 | 1.73 | 3.18 | 1.67 | 3.25 | 2.08 µM | 5.1 | 1.8 µM | 3.32 | 1.74 µM | 3.19 µM |
| O=C(/C=C\c1ccc([N+](=O)[O-])cc1)c1ccccc(=O)c1O | – | 15.5 | – | 4.61 | – | 14.7 | – | 0.967 | – | 3.08 | – | 2.86 | – | 6.17 | – | 18.1 | – | > 100 | – | 5.6 µM |
| COc1cccc(CC(C)=C(c2ccc(OCCN3CCCCC3)cc2)c2ccc(OCCN3CCCCC3)cc2)c1 | 2.08 | 4.21 | 2.3 | 4.29 | 2.42 | 4.82 | 1.41 µM | 3.73 | 1840 | 3.81 | 1.64 | 3.52 | 1.93 | 3.82 | 1.95 µM | 4.03 | 1.81 µM | 3.7 | 1.74 µM | 3.72 µM |
| CC(C)(C)C1CCC2c3c([nH]c4ccccc34)C3C(=O)N(c4ccc(Cl)cc4)C(=O)C3C2C1 (configuration not stated) | > 100 | > 100 | – | – | – | – | 49.9 µM and > 10 µM | > 100 | – | > 10 | – | 0.0487 | – | > 100 | 59.5 µM and > 10 µM | > 100 | 56.5 µM and > 10 µM | > 100 | 22.1 µM and > 10 µM | 81.6 µM and > 10 µM |
| COc1ccc(Cc2coc3ccccc3c2=O)cc1OC | – | > 100 | – | 49.5 | – | > 100 | – | > 100 | – | > 100 | – | > 100 | – | > 100 | – | > 100 | – | > 100 | – | – |
| CC(C)(C)c1ccc(Oc2ccc(N)cn2)cc1 | > 100 | > 100 | 21 | > 100 | 45.8 | > 100 | 50.7 µM | > 100 | 39700 | > 100 | 60.1 | > 100 | 11.3 | 99.8 | 32.8 µM | > 100 | 49.2 µM | > 100 | > 100 µM | > 100 µM |
| CC1C(C)N(C(=O)CCl)c2ccccc2N1C(=O)CCl (configuration not stated) | 1.62 | 3.52 | 0.186 | 0.355 | 1.45 | 3.06 | 0.399 µM | 0.973 | 365 | 1.32 | 0.235 | 0.729 | 0.849 | 2.41 | 0.499 µM | 1.73 | 0.755 µM | 2.14 | 1.69 µM | 3.23 µM |
